The values below come from patent US12050218B2, “Mitochondrial protease OMA1 as a marker for breast cancer” (NUtech Ventures, priority 2017, dated 2024).

The structures appear in SMILES notation.

For experiment [1], the system named is OMA1-depleted 21MT-1 cells. Nature of the experiment: Growth rate of control and OMA1-depleted 21MT-1 cells under glutamate pathway inhibition. It is filed as cell-based, human. The conditions noted are these: 10 μM BPTES, 10 mM galactose medium; OMA1 KD vs control 21MT-1 cells (FIG. 3C). The protocol:
FIG. 3A depicts a representative oxygen consumption rate (OCR) graph in control and OMA1-depleted 21MT-1 cells under basal, oligomycin A (OLA), FCCP, and Antimycin A/Rotenone (AA+Rot.) stimulated conditions. Cells were cultured in the medium containing 10 mM galactose. FIG. 3B depicts respiratory control ratios in control and OMA1 KD 21MT-1 cells cultured in 10 mM galactose medium. Data represent the mean±S.E.M. (n=3 biological replicates); *p<0.05, by t-test. FIG. 3C depicts the growth rate of control and OMA1-depleted 21MT-1 cells under conditions of glutamate pathway inhibition. Cells were cultured in the 10 mM galactose-containing medium in the presence of 10 μM BPTES for the indicated periods of time and the number of viable cells at each time point has been assessed. Data represent the mean±S.D. (n=3 biological replicates); *p<0.05, ***p<0.001, by unpaired t-test.
(§1) The wild type and oma1^−/− mouse embryonic fibroblasts (24, obtained from Dr. Carlos Lopez-Otin, University of Oviedo) were seeded into 12-well plates at the density of 4×10^4 cells per well. […] Every 24 hours cells, from one well per condition were trypsinized with 0.05% Trypsin (Life Technologies), washed with Ca-, Mg-PBS, resuspended and counted in Countess Automated Cell Counter (Life Technologies). […]

The subject of experiment [2] is oma1−/− mouse embryonic fibroblasts. Briefly: Cell viability / growth rate of MEF cells under glutamate pathway inhibition. It is filed as cell-based. The conditions noted are these: 10 μM BPTES, low glucose or 10 mM galactose medium; oma1−/− vs wild type MEFs (FIG. 1B). As to the method: FIG. 1A depicts extracellular acidification rates (ECAR) in wild type and oma1^−/− mouse embryonic fibroblasts under basal, FCCP-stimulated, and glycolysis-ablating (2-DG) conditions. Cells were cultured in the media containing 10 mM glucose. Data are shown as mean values of 3 independent experiments±S.E.M.; **p<0.01, by unpaired t-test. FIG. 1B depicts growth rate of wild type (WT) and oma1^−/− MEF cells under conditions of glutamate pathway inhibition by BPTES. Cells were cultured in the 10 mM galactose-containing medium with (left panel) or without (right panel) 10 μM BPTES for the indicated periods of time and the number of viable cells at each time point has been assessed. […] FIG. 1D depicts the prevalence of cells with protrusions was analyzed in WT and oma1^−/− MEF cells two days after re-seeding on 6-well plates after one week of growth at 100% confluence. […] Of the cells in the field of view, the number of cells with long lamellopodia and cells with normal lamellopodia were counted. […]
as §1

For `O=C(Cc1ccccc1)Nc1nnc(CCSCCc2nnc(NC(=O)Cc3ccccc3)s2)s1` [BPTES], the “sensitivity of OMA1-depleted 21MT-1 cells to glutaminase inhibitor” value in experiment [1] was “marked increase in sensitivity”. In addition, the “proliferation of oma1−/− MEFs compared with wild type cells” value in experiment [2] is given as “proliferated at much slower rates than wild type cells”.
